US20250154109A1, “SODIUM CHANNEL BLOCKING COMPOUNDS, DERIVATIVES THEREOF, AND METHODS OF THEIR USE” (LATIGO BIOTHERAPEUTICS, INC, priority 2022, published 2025)
pIC50: −log10 of the molar value. Structures can show the parent of a compound that is named as a salt. Where two headings read alike, the source gives them in different places.

Molecular target: human Nav1.8 (Homo sapiens, UniProt Q9Y5Y9)
Assay: SyncroPatch384PE assay (automated patch clamp)
Format: cell-based
Settings: human Nav1.8/b3 CHO cells
[1] = inactivated state block (P2 measurement), read-out: P2 IC50
[2] = resting state block (P1 measurement), read-out: P1 IC50

Sequence of human Nav1.8 (Q9Y5Y9 whole entry): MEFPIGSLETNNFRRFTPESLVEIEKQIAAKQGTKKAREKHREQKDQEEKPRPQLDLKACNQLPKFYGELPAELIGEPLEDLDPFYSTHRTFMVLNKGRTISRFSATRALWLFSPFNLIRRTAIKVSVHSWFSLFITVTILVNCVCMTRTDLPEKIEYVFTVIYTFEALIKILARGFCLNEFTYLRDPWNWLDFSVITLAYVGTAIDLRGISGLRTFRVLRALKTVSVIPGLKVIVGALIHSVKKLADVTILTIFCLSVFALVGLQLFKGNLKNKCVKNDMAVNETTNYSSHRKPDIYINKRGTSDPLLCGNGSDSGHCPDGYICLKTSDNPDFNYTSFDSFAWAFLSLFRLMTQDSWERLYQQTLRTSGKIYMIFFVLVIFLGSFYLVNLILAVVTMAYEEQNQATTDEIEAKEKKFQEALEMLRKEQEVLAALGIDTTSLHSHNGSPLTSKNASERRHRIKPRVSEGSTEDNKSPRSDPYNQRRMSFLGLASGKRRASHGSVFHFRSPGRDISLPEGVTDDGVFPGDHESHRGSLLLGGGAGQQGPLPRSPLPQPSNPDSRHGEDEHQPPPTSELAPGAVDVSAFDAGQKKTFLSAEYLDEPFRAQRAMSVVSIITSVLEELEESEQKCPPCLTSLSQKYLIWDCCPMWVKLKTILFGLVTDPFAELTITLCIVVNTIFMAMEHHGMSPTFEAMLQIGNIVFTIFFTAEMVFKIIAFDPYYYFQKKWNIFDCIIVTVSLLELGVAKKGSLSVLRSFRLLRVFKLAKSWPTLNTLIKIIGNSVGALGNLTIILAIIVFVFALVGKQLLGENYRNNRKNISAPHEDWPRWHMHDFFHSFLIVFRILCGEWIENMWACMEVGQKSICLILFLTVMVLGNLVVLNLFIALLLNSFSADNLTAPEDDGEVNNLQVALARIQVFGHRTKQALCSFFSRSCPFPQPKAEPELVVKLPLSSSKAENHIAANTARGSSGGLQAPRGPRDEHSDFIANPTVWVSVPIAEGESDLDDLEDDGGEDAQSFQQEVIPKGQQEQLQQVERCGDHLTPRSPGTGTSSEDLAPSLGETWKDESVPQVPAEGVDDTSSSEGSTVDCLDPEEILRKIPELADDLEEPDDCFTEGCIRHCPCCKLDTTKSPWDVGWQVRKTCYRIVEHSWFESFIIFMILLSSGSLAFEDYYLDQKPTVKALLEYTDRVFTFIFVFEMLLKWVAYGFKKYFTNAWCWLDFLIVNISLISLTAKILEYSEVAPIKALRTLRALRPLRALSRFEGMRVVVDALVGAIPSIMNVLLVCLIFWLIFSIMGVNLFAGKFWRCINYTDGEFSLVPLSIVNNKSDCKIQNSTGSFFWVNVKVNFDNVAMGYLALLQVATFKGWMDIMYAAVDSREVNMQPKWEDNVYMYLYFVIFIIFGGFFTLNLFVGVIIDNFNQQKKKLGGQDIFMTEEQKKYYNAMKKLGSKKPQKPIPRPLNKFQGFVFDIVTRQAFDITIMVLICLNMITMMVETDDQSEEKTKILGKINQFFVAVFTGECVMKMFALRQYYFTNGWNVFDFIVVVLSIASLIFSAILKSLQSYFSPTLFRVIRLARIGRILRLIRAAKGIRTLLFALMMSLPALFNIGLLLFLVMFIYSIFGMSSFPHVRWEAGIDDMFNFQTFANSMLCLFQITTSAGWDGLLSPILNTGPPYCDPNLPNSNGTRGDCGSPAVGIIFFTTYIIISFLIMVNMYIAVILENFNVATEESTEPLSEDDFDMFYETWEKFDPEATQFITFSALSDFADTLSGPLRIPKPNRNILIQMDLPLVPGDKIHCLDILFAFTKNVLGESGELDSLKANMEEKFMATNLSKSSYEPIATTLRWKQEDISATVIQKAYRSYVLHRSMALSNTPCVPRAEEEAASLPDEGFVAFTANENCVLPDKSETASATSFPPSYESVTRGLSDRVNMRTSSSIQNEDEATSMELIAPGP

Structure (SMILES) | pIC50 [1] | pIC50 [2]
Cc1nc(-c2cnn(C)c2)nc(N2CCCC(F)(F)CC2)c1C(=O)Nc1cccc([S@](C)(=N)=O)c1 [Example 150, (R)-4-(4,4-difluoroazepan-1-yl)-6-methyl-2-(1-methyl-1H-pyrazol-4-yl)-N-(3-(S-methylsulfonimidoyl)phenyl)pyrimidine-5-carboxamide] | 6.70 to 7.00 | 6.70 to 7.00
Cc1c(N2CC3(COC3)C2)cnc(N2CCCC(F)(F)CC2)c1C(=O)Nc1cccc([S@@](C)(=N)=O)c1 [Example 90, (S)-2-(4,4-difluoroazepan-1-yl)-4-methyl-N-(3-(S-methylsulfonimidoyl)phenyl)-5-(2-oxa-6-azaspiro[3.3]heptan-6-yl)nicotinamide] | 6.70 to 7.00 | 6.70 to 7.00
Cc1nc(N2CCCC(F)(F)CC2)c(C(=O)Nc2ccnc(S(=N)(N)=O)c2)cc1C(F)(F)F (centres unmarked) [Example 114, 2-(4,4-difluoroazepan-1-yl)-6-methyl-N-(2-sulfamidimidoylpyridin-4-yl)-5-(trifluoromethyl)nicotinamide] | ≥ 8.30 | ≥ 8.30
Cc1c(Cl)c(-c2cnn(C)c2)nc(N2CCCC(F)(F)CC2)c1C(=O)Nc1cccc([S@](C)(=N)=O)c1 [Example 162, (R)-5-chloro-2-(4,4-difluoroazepan-1-yl)-4-methyl-6-(1-methyl-1H-pyrazol-4-yl)-N-(3-(S-methylsulfonimidoyl)phenyl)nicotinamide] | ≥ 8.30 | ≥ 8.30
Cc1c(-c2ccc(Cl)c(F)c2)cnc(N2CCCC(F)(F)CC2)c1C(=O)Nc1cccc([S@](C)(=N)=O)c1 [Example 166, (R)-5-(4-chloro-3-fluorophenyl)-2-(4,4-difluoroazepan-1-yl)-4-methyl-N-(3-(S-methylsulfonimidoyl)phenyl)nicotinamide] | ≥ 8.30 | ≥ 8.30
CS(=N)(=O)c1cccc(NC(=O)c2cc(C(F)(F)F)nnc2N2CCC3(CC2)CC3)c1 (centres unmarked) [Example 14, N-(3-(S-methylsulfonimidoyl)phenyl)-3-(6-azaspiro[2.5]octan-6-yl)-6-(trifluoromethyl)pyridazine-4-carboxamide] | < 6.70 | < 6.70
CS(=N)(=O)c1cccc(NC(=O)c2ccc(CC3CC3)nc2N2CCC3(CC2)CC3)c1 (centres unmarked) [Example 80, 6-(cyclopropylmethyl)-N-(3-(S-methylsulfonimidoyl)phenyl)-2-(6-azaspiro[2.5]octan-6-yl)nicotinamide] | 7.30 to 8.30 | 7.30 to 8.30
Cc1c(-c2ccccc2)nnc(N2CCCC(F)(F)CC2)c1C(=O)Nc1cccc([S@](C)(=N)=O)c1 [Example 118, (R)-3-(4,4-difluoroazepan-1-yl)-5-methyl-N-(3-(S-methylsulfonimidoyl)phenyl)-6-phenylpyridazine-4-carboxamide] | 7.00 to 7.30 | 7.00 to 7.30
Cc1c(-c2ccc(Cl)cc2)cnc(N2CCCC(F)(F)CC2)c1C(=O)Nc1cccc([S@](C)(=N)=O)c1 [Example 67, (R)-5-(4-chlorophenyl)-2-(4,4-difluoroazepan-1-yl)-4-methyl-N-(3-(S-methylsulfonimidoyl)phenyl)nicotinamide] | ≥ 8.30 | ≥ 8.30
Cc1ccsc1-c1cnc(N2CCCC(F)(F)CC2)c(C(=O)Nc2cccc(S(C)(=N)=O)c2)c1C (centres unmarked) [Example 113, 2-(4,4-difluoroazepan-1-yl)-4-methyl-N-(3-(S-methylsulfonimidoyl)phenyl)-5-(3-methylthiophen-2-yl)nicotinamide] | ≥ 8.30 | ≥ 8.30
Cc1c(-c2cnn(C)c2)cnc(N2CCCC(F)(F)CC2)c1C(=O)NC12CC(C(=O)O)(C1)C2 [Example 142, 3-(2-(4,4-difluoroazepan-1-yl)-4-methyl-5-(1-methyl-1H-pyrazol-4-yl)nicotinamido)bicyclo[1.1.1]pentane-1-carboxylic acid] | ≥ 8.30 | ≥ 8.30
Cc1c(-c2cnn(C)c2)cnc(N2CCCC(F)(F)CC2)c1C(=O)Nc1cccc([S@](C)(=N)=O)c1 [Example 45, (R)-2-(4,4-difluoroazepan-1-yl)-4-methyl-5-(1-methyl-1H-pyrazol-4-yl)-N-(3-(S-methylsulfonimidoyl)phenyl)nicotinamide] | 7.00 to 7.30 | 7.00 to 7.30
Cc1c(C#N)c(C#N)nc(N2CCCC(F)(F)CC2)c1C(=O)Nc1cccc([S@](C)(=N)=O)c1 [Example 170, (R)-5,6-dicyano-2-(4,4-difluoroazepan-1-yl)-4-methyl-N-(3-(S-methylsulfonimidoyl)phenyl)nicotinamide] | 7.30 to 8.30 | 7.30 to 8.30

Results, then the compound that gave them:

pIC50 [1] | pIC50 [2] | Structure (SMILES)
≥ 8.30 | ≥ 8.30 | Cc1c(C(=O)Nc2cccc([S@](C)(=N)=O)c2)c(N2CCCC(F)(F)CC2)nc(C(F)(F)F)c1-c1cnn(C)c1 [Example 133, (R)-2-(4,4-difluoroazepan-1-yl)-4-methyl-5-(1-methyl-1H-pyrazol-4-yl)-N-(3-(S-methylsulfonimidoyl)phenyl)-6-(trifluoromethyl)nicotinamide]
≥ 8.30 | ≥ 8.30 | Cc1nc(N2CCCC(F)(F)CC2)c(C(=O)Nc2cccc(S(C)(=N)=O)c2)c(C)c1Cl (centres unmarked) [Example 106, 5-chloro-2-(4,4-difluoroazepan-1-yl)-4,6-dimethyl-N-(3-(S-methylsulfonimidoyl)phenyl)nicotinamide]
< 6.70 | < 6.70 | Cc1c(C#CCO)cnc(N2CCCC(F)(F)CC2)c1C(=O)Nc1cccc([S@](C)(=N)=O)c1 [Example 123, (R)-2-(4,4-difluoroazepan-1-yl)-5-(3-hydroxyprop-1-yn-1-yl)-4-methyl-N-(3-(S-methylsulfonimidoyl)phenyl)nicotinamide]
≥ 8.30 | ≥ 8.30 | Cc1c(C#N)c(C(F)(F)F)nc(N2CCCC(F)(F)CC2)c1C(=O)Nc1cccc([S@@](C)(=O)=NC(=O)C(C)(C)N)c1 [Example 227, (R)-N-(3-(N-(2-amino-2-methylpropanoyl)-S-methylsulfonimidoyl)phenyl)-5-cyano-2-(4,4-difluoroazepan-1-yl)-4-methyl-6-(trifluoromethyl)nicotinamide formate]
≥ 8.30 | ≥ 8.30 | Cc1c(C(F)(F)F)nnc(N2CCCC(F)(F)CC2)c1C(=O)Nc1cccc([S@@](C)(=O)=NC(=O)CN2CC(F)(F)C2)c1 [Example 198, (R)-3-(4,4-difluoroazepan-1-yl)-N-(3-(N-(2-(3,3-difluoroazetidin-1-yl)acetyl)-S-methylsulfonimidoyl)phenyl)-5-methyl-6-(trifluoromethyl)pyridazine-4-carboxamide]
≥ 8.30 | ≥ 8.30 | Cc1c(C#N)c(C(F)(F)F)nc(N2CCCC(F)(F)CC2)c1C(=O)Nc1cccc([S@@](C)(=O)=NC(=O)C2CNC2)c1 [Example 57, (R)-N-(3-(N-(azetidine-3-carbonyl)-S-methylsulfonimidoyl)phenyl)-5-cyano-2-(4,4-difluoroazepan-1-yl)-4-methyl-6-(trifluoromethyl)nicotinamide formate]
≥ 8.30 | ≥ 8.30 | Cc1c(-c2ccccc2)cnc(N2CCCC(F)(F)CC2)c1C(=O)Nc1cccc(S(C)(=N)=O)c1 (centres unmarked) [Example 42, 2-(4,4-Difluoroazepan-1-yl)-4-methyl-N-(3-(S-methylsulfonimidoyl)phenyl)-5-phenylnicotinamide]
≥ 8.30 | ≥ 8.30 | Cc1c(C(F)(F)F)cnc(N2CCCC(F)(F)CC2)c1C(=O)Nc1cccc([S@](C)(=N)=O)c1 [Example 164, (R)-2-(4,4-difluoroazepan-1-yl)-4-methyl-N-(3-(S-methylsulfonimidoyl)phenyl)-5-(trifluoromethyl)nicotinamide]
≥ 8.30 | ≥ 8.30 | Cc1c(C(F)(F)F)cnc(N2CCCC(F)(F)CC2)c1C(=O)Nc1cccc([S@@](C)(=O)=NC(=O)CO)c1 [Example 195, (R)-2-(4,4-difluoroazepan-1-yl)-N-(3-(N-(2-hydroxyacetyl)-S-methylsulfonimidoyl)phenyl)-4-methyl-5-(trifluoromethyl)nicotinamide]
≥ 8.30 | ≥ 8.30 | CNCC(=O)N=[S@](C)(=O)c1cccc(NC(=O)c2c(N3CCCC(F)(F)CC3)nnc(C(F)(F)F)c2C)c1 [Example 43, (R)-3-(4,4-difluoroazepan-1-yl)-5-methyl-N-(3-(S-methyl-N-(methylglycyl)sulfonimidoyl)phenyl)-6-(trifluoromethyl)pyridazine-4-carboxamide]
7.30 to 8.30 | 7.30 to 8.30 | Cc1c(N2CC(F)(F)C2)cnc(N2CCCC(F)(F)CC2)c1C(=O)Nc1cccc([S@](C)(=N)=O)c1 [Example 149, (R)-2-(4,4-difluoroazepan-1-yl)-5-(3,3-difluoroazetidin-1-yl)-4-methyl-N-(3-(S-methylsulfonimidoyl)phenyl)nicotinamide]
≥ 8.30 | ≥ 8.30 | CNCC(=O)N=[S@](C)(=O)c1cccc(NC(=O)c2c(N3CCCC(F)(F)CC3)ncc(-c3ccc(F)c(F)c3)c2C)c1 [Example 60, (R)-2-(4,4-difluoroazepan-1-yl)-5-(3,4-difluorophenyl)-4-methyl-N-(3-(S-methyl-N-(methylglycyl)sulfonimidoyl)phenyl)nicotinamide]
≥ 8.30 | ≥ 8.30 | Cc1c(Br)cnc(N2CCCC(F)(F)CC2)c1C(=O)Nc1cccc(S(C)(=N)=O)c1 (centres unmarked) [Example 86, 5-bromo-2-(4,4-difluoroazepan-1-yl)-4-methyl-N-(3-(S-methylsulfonimidoyl)phenyl)nicotinamide]
6.70 to 7.00 | 6.70 to 7.00 | Cc1c(C#CCN(C)C)cnc(N2CCCC(F)(F)CC2)c1C(=O)Nc1cccc([S@](C)(=N)=O)c1 [Example 124, (R)-2-(4,4-difluoroazepan-1-yl)-5-(3-(dimethylamino)prop-1-yn-1-yl)-4-methyl-N-(3-(S-methylsulfonimidoyl)phenyl)nicotinamide]
≥ 8.30 | ≥ 8.30 | Cc1c(Cl)cnc(N2CCCC(F)(F)CC2)c1C(=O)Nc1cccc(S(C)(=N)=O)c1 (centres unmarked) [Example 95, 5-chloro-2-(4,4-difluoroazepan-1-yl)-4-methyl-N-(3-(S-methylsulfonimidoyl)phenyl)nicotinamide]
